Results: patent US10072034B2, “Kinase inhibitors” (Respivert Limited, priority 2016, dated 2018)

Experiments:
[1] = molecular target: c-Src (Homo sapiens (Human), UniProt P12931); assay: c-Src enzyme inhibition (FRET, Z-LYTE); format: biochemical
Protocol: The enzyme inhibitory activities of compounds disclosed herein are determined by FRET using synthetic peptides labelled with both donor and acceptor fluorophores (Z-LYTE, Invitrogen Ltd., Paisley, UK).
The inhibitory activities of compounds of the invention against c-Src and Syk enzymes (Invitrogen), are evaluated in a similar fashion to that described hereinabove. The relevant enzyme (3000 ng/mL or 2000 ng/mL respectively, 2.5 μL) is incubated with the test compound (either 1 μg/mL, 0.1 μg/mL, 0.01 μg/mL, or 0.001 μg/mL, 2.5 μL each) for 2 hr at RT. The FRET peptides (8 μM. 2.5 μL), and appropriate ATP solutions (2.5 μL, 800 μM for c-Src, and 60 μM ATP for Syk) are then added to the enzymes/compound mixtures and the mixture incubated for 1 hr. Development reagent (protease, 5 μL) is added for 1 hr prior to detection in a fluorescence microplate reader (Varioskan® Flash, ThermoFisher Scientific).
In all cases, the site-specific protease cleaves non-phosphorylated peptide only and eliminates the FRET signal. Phosphorylation levels of each reaction are calculated using the ratio of coumarin emission (donor) over fluorescein emission (acceptor), for which high ratios indicate high phosphorylation and low ratios indicate low phosphorylation levels. […]

[2] = test system: IL-8 release in PBMCs; assay: LPS-induced IL-8 release in PBMC cells (assay (b)); format: cell-based; details: Homo sapiens, LPS-stimulated PBMCs
Description: Peripheral blood mononuclear cells (PBMCs) from healthy subjects are separated from whole blood using a density gradient (Lymphoprep, Axis-Shield Healthcare). […] The supernatant is harvested for determination of IL-8 and TNFα concentrations by sandwich ELISA (Duo-set, R&D systems) and read on the fluorescence microplate reader (Varioskan® Flash, ThermoFisher Scientific).

[3] = test system: TNFα release in PBMCs; assay: LPS-induced TNFα release in PBMC cells (assay (b)); format: cell-based; details: Homo sapiens, LPS-stimulated PBMCs
Protocol: Peripheral blood mononuclear cells (PBMCs) from healthy subjects are separated from whole blood using a density gradient (Lymphoprep, Axis-Shield Healthcare). The PBMCs are seeded in 96 well plates and treated with compounds at the desired concentration for 2 hours before addition of 1 ng/mL LPS (Escherichia Coli 0111:B4 from Sigma Aldrich) for 24 hours under normal tissue culture conditions (37° C., 5% CO2). The supernatant is harvested for determination of IL-8 and TNFα concentrations by sandwich ELISA (Duo-set, R&D systems) and read on the fluorescence microplate reader (Varioskan® Flash, ThermoFisher Scientific). The concentration at 50% inhibition (IC50) of IL-8 and TNFα production is calculated from the dose response curve.

c-Src, sequence (P12931 whole entry, looked up): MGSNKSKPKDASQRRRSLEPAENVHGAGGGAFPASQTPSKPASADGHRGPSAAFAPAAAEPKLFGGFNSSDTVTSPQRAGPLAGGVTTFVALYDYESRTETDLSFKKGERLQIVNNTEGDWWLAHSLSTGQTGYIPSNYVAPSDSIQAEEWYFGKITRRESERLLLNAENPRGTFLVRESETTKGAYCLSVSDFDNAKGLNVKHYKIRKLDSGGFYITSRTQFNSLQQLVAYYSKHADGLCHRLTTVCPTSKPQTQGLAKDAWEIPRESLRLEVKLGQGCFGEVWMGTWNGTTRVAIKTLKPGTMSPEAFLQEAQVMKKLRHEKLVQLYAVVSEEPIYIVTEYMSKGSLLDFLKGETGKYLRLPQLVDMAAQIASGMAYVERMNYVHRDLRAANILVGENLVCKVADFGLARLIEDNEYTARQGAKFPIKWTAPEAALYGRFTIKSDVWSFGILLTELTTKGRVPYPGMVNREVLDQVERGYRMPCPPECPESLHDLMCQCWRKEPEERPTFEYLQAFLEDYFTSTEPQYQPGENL

Structure (SMILES): COc1cc(Nc2cc(Oc3ccc(NC(=O)Nc4cc(C(C)(C)C)cc(NS(C)(=O)=O)c4OC)c4ccccc34)ccn2)cc(OCCOCCOCC(=O)O)c1 [Example 3]
- IC50 [1]: 18 nM
- IC50 [2]: 17.3 nM
- IC50 [3]: 10.8 nM
